Results from PubChem BioAssay (NCI).
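The concentration for 50% growth inhibition is given as GI50. TGI is the concentration that stops growth completely.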

Key:
Assay in all cases: growth of human tumour cells (NCI), 384-well format
RPMI-8226 leukemia = tested on: RPMI-8226 leukemia
HCC-2998 colon = tested on: HCC-2998 colon
HT29 colon = tested on: HT29 colon
SNB-75 CNS = tested on: SNB-75 CNS
SR leukemia = tested on: SR leukemia
A549 NSCLC = tested on: A549 NSCLC
OVCAR-4 ovarian = tested on: OVCAR-4 ovarian
SNB-19 CNS = tested on: SNB-19 CNS
UACC-257 melanoma = tested on: UACC-257 melanoma
HOP-62 NSCLC = tested on: HOP-62 NSCLC
SF-539 CNS = tested on: SF-539 CNS
UACC-62 melanoma = tested on: UACC-62 melanoma
SK-MEL-2 melanoma = tested on: SK-MEL-2 melanoma
MALME-3M melanoma = tested on: MALME-3M melanoma
IGROV1 ovarian = tested on: IGROV1 ovarian
HL-60(TB) leukemia = tested on: HL-60(TB) leukemia
M14 melanoma = tested on: M14 melanoma
RXF 393 renal = tested on: RXF 393 renal
CCRF-CEM leukemia = tested on: CCRF-CEM leukemia
K-562 leukemia = tested on: K-562 leukemia
NCI/ADR-RES ovarian = tested on: NCI/ADR-RES ovarian
OVCAR-8 ovarian = tested on: OVCAR-8 ovarian
NCI-H23 lung = tested on: NCI-H23 lung
T-47D breast = tested on: T-47D breast
HCT-15 colon = tested on: HCT-15 colon
786-0 renal = tested on: 786-0 renal
COLO 205 colon = tested on: COLO 205 colon
A498 renal = tested on: A498 renal
CAKI-1 renal = tested on: CAKI-1 renal
KM12 colon = tested on: KM12 colon
NCI-H522 lung = tested on: NCI-H522 lung
NCI-H460 NSCLC = tested on: NCI-H460 NSCLC
MDA-MB-468 breast = tested on: MDA-MB-468 breast
SK-MEL-5 melanoma = tested on: SK-MEL-5 melanoma
NCI-H322M lung = tested on: NCI-H322M lung
BT-549 breast = tested on: BT-549 breast
SF-295 CNS = tested on: SF-295 CNS
PC-3 prostate = tested on: PC-3 prostate
SN12C renal = tested on: SN12C renal
TK-10 renal = tested on: TK-10 renal
SK-MEL-28 melanoma = tested on: SK-MEL-28 melanoma
HCT-116 colon = tested on: HCT-116 colon
HS 578T breast = tested on: HS 578T breast
HOP-92 NSCLC = tested on: HOP-92 NSCLC
EKVX NSCLC = tested on: EKVX NSCLC
MDA-MB-435 melanoma = tested on: MDA-MB-435 melanoma
DU-145 prostate = tested on: DU-145 prostate
MCF7 breast = tested on: MCF7 breast
OVCAR-5 ovarian = tested on: OVCAR-5 ovarian
SW-620 colon = tested on: SW-620 colon
SF-268 CNS = tested on: SF-268 CNS
U251 glioblastoma = tested on: U251 glioblastoma
OVCAR-3 ovarian = tested on: OVCAR-3 ovarian
MOLT-4 leukemia = tested on: MOLT-4 leukemia
SK-OV-3 ovarian = tested on: SK-OV-3 ovarian
MDA-MB-231 breast = tested on: MDA-MB-231 breast
ACHN renal = tested on: ACHN renal
NCI-H226 lung = tested on: NCI-H226 lung

O=C1CC(c2c[nH]c3ccc(F)cc23)C(=O)N1 (stereo unspecified)
GI50 (RPMI-8226 leukemia): > 100 µM
TGI (RPMI-8226 leukemia): > 100 µM
GI50 (HCC-2998 colon): > 100 µM
TGI (HCC-2998 colon): > 100 µM
GI50 (HT29 colon): > 100 µM
TGI (HT29 colon): > 100 µM
GI50 (SNB-75 CNS): > 100 µM
TGI (SNB-75 CNS): > 100 µM
GI50 (SR leukemia): > 100 µM
TGI (SR leukemia): > 100 µM
GI50 (A549 NSCLC): > 100 µM
TGI (A549 NSCLC): > 100 µM
GI50 (OVCAR-4 ovarian): > 100 µM
TGI (OVCAR-4 ovarian): > 100 µM
GI50 (SNB-19 CNS): > 100 µM
TGI (SNB-19 CNS): > 100 µM
GI50 (UACC-257 melanoma): > 100 µM
TGI (UACC-257 melanoma): > 100 µM
GI50 (HOP-62 NSCLC): > 100 µM
TGI (HOP-62 NSCLC): > 100 µM
GI50 (SF-539 CNS): > 100 µM
TGI (SF-539 CNS): > 100 µM
GI50 (UACC-62 melanoma): > 100 µM
TGI (UACC-62 melanoma): > 100 µM
GI50 (SK-MEL-2 melanoma): > 100 µM
TGI (SK-MEL-2 melanoma): > 100 µM
GI50 (MALME-3M melanoma): > 100 µM
TGI (MALME-3M melanoma): > 100 µM
GI50 (IGROV1 ovarian): > 100 µM
TGI (IGROV1 ovarian): > 100 µM
GI50 (HL-60(TB) leukemia): > 100 µM
TGI (HL-60(TB) leukemia): > 100 µM
GI50 (M14 melanoma): > 100 µM
TGI (M14 melanoma): > 100 µM
GI50 (RXF 393 renal): > 100 µM
TGI (RXF 393 renal): > 100 µM
GI50 (CCRF-CEM leukemia): > 100 µM
TGI (CCRF-CEM leukemia): > 100 µM
GI50 (K-562 leukemia): > 100 µM
TGI (K-562 leukemia): > 100 µM
GI50 (NCI/ADR-RES ovarian): > 100 µM
TGI (NCI/ADR-RES ovarian): > 100 µM
GI50 (OVCAR-8 ovarian): > 100 µM
TGI (OVCAR-8 ovarian): > 100 µM
GI50 (NCI-H23 lung): > 100 µM
TGI (NCI-H23 lung): > 100 µM
GI50 (T-47D breast): > 100 µM
TGI (T-47D breast): > 100 µM
GI50 (HCT-15 colon): > 100 µM
TGI (HCT-15 colon): > 100 µM
GI50 ([…]-0 renal): > 100 µM
TGI (786-0 renal): > 100 µM
GI50 (COLO 205 colon): > 100 µM
TGI (COLO 205 colon): > 100 µM
GI50 (A498 renal): > 100 µM
TGI (A498 renal): > 100 µM
GI50 (CAKI-1 renal): > 100 µM
TGI (CAKI-1 renal): > 100 µM
GI50 (KM12 colon): > 100 µM
TGI (KM12 colon): > 100 µM
GI50 (NCI-H522 lung): > 100 µM
TGI (NCI-H522 lung): > 100 µM
GI50 (NCI-H460 NSCLC): > 100 µM
TGI (NCI-H460 NSCLC): > 100 µM
GI50 (MDA-MB-468 breast): > 100 µM
TGI (MDA-MB-468 breast): > 100 µM
GI50 (SK-MEL-5 melanoma): > 100 µM
TGI (SK-MEL-5 melanoma): > 100 µM
GI50 (NCI-H322M lung): > 100 µM
TGI (NCI-H322M lung): > 100 µM
GI50 (BT-549 breast): > 100 µM
TGI (BT-549 breast): > 100 µM
GI50 (SF-295 CNS): > 100 µM
TGI (SF-295 CNS): > 100 µM
GI50 (PC-3 prostate): > 100 µM
TGI (PC-3 prostate): > 100 µM
GI50 (SN12C renal): > 100 µM
TGI (SN12C renal): > 100 µM
GI50 (TK-10 renal): > 100 µM
TGI (TK-10 renal): > 100 µM
GI50 (SK-MEL-28 melanoma): > 100 µM
TGI (SK-MEL-28 melanoma): > 100 µM
GI50 (HCT-116 colon): > 100 µM
TGI (HCT-116 colon): > 100 µM
GI50 (HS 578T breast): > 100 µM
TGI (HS 578T breast): > 100 µM
GI50 (HOP-92 NSCLC): > 100 µM
TGI (HOP-92 NSCLC): > 100 µM
GI50 (EKVX NSCLC): > 100 µM
TGI (EKVX NSCLC): > 100 µM
GI50 (MDA-MB-435 melanoma): > 100 µM
TGI (MDA-MB-435 melanoma): > 100 µM
GI50 (DU-145 prostate): > 100 µM
TGI (DU-145 prostate): > 100 µM
GI50 (MCF7 breast): > 100 µM
TGI (MCF7 breast): > 100 µM
GI50 (OVCAR-5 ovarian): > 100 µM
TGI (OVCAR-5 ovarian): > 100 µM
GI50 (SW-620 colon): > 100 µM
TGI (SW-620 colon): > 100 µM
GI50 (SF-268 CNS): > 100 µM
TGI (SF-268 CNS): > 100 µM
GI50 (U251 glioblastoma): > 100 µM
TGI (U251 glioblastoma): > 100 µM
GI50 (OVCAR-3 ovarian): > 100 µM
TGI (OVCAR-3 ovarian): > 100 µM
GI50 (MOLT-4 leukemia): > 100 µM
TGI (MOLT-4 leukemia): > 100 µM
GI50 (SK-OV-3 ovarian): > 100 µM
TGI (SK-OV-3 ovarian): > 100 µM
GI50 (MDA-MB-231 breast): > 100 µM
TGI (MDA-MB-231 breast): > 100 µM
GI50 (ACHN renal): > 100 µM
TGI (ACHN renal): > 100 µM
GI50 (NCI-H226 lung): > 100 µM
TGI (NCI-H226 lung): > 100 µM
